Test: Elution of paclitaxel from E3 Med Coat coated stents in phosphate buffered saline
Type: physicochemical
Conditions: from E3 Med Coat stents (loading 50-60 μg), over a period of 14 days
Procedure: Solution E3-PC was coated on stainless steel coronary stents, and dried for 60 minutes at 120° C. This layer was applied twice. Solution E3 —Med Coat was coated over the precoat layers, and dried for 60 minutes at 120° C. Drug loading on the stents in the range of 50-60 μg was achieved by applying the Med Coat three times. The stent samples with three layers of E3—Med Coat were subjected to elution in room temperature phosphate buffered saline for times up to 336 hours, and produced the results set forth in TABLE I.

Structure (SMILES): CC(=O)O[C@H]1C(=O)[C@@]2(C)[C@H]([C@H](OC(=O)c3ccccc3)[C@]3(O)C[C@H](OC(=O)[C@H](O)[C@@H](NC(=O)c4ccccc4)c4ccccc4)C(C)=C1C3(C)C)[C@]1(OC(C)=O)CO[C@@H]1C[C@@H]2O [paclitaxel]
- paclitaxel eluted out: approximately 10%

Reference: US8101200B2, “Targeted therapeutic agent release devices and methods of making and using the same” (Angiotech BioCoatings, Inc., priority 2000, dated 2012)
